# Results published in article PMC7782793, “Hydroxamic acid-modified peptide microarrays for profiling isozyme-selective interactions and inhibition of histone deacetylases” (Nature Communications, 2021).
# “And” between values parts separate entries of the source, which are not always exact repeats. Identical values can stand only once. Marks after values point to notes of the source that are not given here. Non-standard residues stand in square brackets, D forms with d. Residues, ends and D or L forms follow the SMILES beside them. *: point of attachment. Asu = N[C@@H](CCCCCC(=O)O)C(=O)O; NHOH = ON*
# Assays:
# HDAC2 [1] = target: T1, HDAC2 (Homo sapiens, UniProt Q92769); experiment: Recombinant HDAC µSPOT microarray binding assay;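 further: Cellulose-bound peptide spots on slides incubated with six HDAC enzyme concentrations, binding intensity read, four-parameter variable-slope fit, EC50 is enzyme concentration giving half-maximal binding, in HEPES buffer pH 7.4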
# T1 construct: HDAC2 (full length, C-terminal His tag, BPS Bioscience, cat. #: 50002); purchased BPS Bioscience 50002
# Protocol: (§1) Experiments were performed twice, data were obtained with Array Analyze software (Active Motif), and data analysis and representation were performed with the GraphPad Prism 7 software. Outliers were curated manually and data were fitted to nonlinear regression [log(agonist) vs. response—variable slope (four parameters)]. […] Non-sigmoidal curves were denoted as not determined (N.D.) The pEC50 values were determined as the concentration of HDAC enzyme required for half-maximal binding signal.
# HDAC1 [2] = target: T2, HDAC1 (Homo sapiens, UniProt Q13547); experiment: Recombinant HDAC µSPOT microarray binding assay;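 further: slides with spotted peptides incubated with six HDAC concentrations in HEPES buffer pH 7.4, spot intensities fitted by four-parameter logistic, EC50 as enzyme concentration giving half-maximal binding signal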
# T2 construct: HDAC1 (full length, C-terminal His tag, C-terminal FLAG tag, BPS Bioscience, cat. #: 50051); FLAG (C); purchased BPS Bioscience 50051
# HDAC3/NCoR2 [3] = target: T3, HDAC3/NCoR2 (Homo sapiens, UniProt O15379); experiment: Recombinant HDAC µSPOT microarray binding assay;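 further: peptide spots on cellulose slides incubated with rising HDAC enzyme concentrations, imaged together, four-parameter logistic fit, EC50 is enzyme concentration giving half-maximal binding signal, two experiments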
# T3 construct: HDAC3/NCoR2 (full length, C-terminal His tag, NCoR2 N-terminal GST tag); purchased BPS Bioscience 50003
# Protocol: as §1
# HDAC8 [4] = target: T4, HDAC8 (Homo sapiens, UniProt Q9BY41); experiment: Recombinant HDAC µSPOT microarray binding assay;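 further: peptide µSPOT slides incubated with varying HDAC enzyme concentrations, imaged signal intensity fitted by four-parameter variable-slope regression, EC50 is enzyme concentration giving half-maximal binding, pH 7.4 HEPES buffer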
# T4 construct: HDAC8 (full length, C-terminal His tag, BPS Bioscience, cat. #: 50008); purchased BPS Bioscience 50008
# T4 sequence (Q9BY41 1-377): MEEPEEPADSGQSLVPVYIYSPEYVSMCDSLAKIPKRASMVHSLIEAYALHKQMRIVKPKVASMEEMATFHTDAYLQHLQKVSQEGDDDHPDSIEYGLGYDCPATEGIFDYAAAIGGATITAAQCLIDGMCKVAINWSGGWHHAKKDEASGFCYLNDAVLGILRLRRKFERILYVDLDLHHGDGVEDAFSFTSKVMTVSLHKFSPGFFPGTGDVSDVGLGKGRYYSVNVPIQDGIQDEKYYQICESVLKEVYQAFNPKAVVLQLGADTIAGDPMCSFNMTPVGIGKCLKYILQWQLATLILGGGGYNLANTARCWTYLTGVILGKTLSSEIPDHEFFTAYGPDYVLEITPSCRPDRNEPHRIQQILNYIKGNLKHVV
# HDAC6 = target: T5, HDAC6 (Homo sapiens, UniProt Q9UBN7); experiment: HDAC inhibition assay (fluorogenic, Ac-Leu-Gly-Lys(Ac)-AMC); format: biochemical; settings: HDAC6, replicates
# T5 construct: HDAC6 (full length, BPS Bioscience, cat. #: 50056); purchased BPS Bioscience 50056
# T5 sequence (Q9UBN7 1-1215): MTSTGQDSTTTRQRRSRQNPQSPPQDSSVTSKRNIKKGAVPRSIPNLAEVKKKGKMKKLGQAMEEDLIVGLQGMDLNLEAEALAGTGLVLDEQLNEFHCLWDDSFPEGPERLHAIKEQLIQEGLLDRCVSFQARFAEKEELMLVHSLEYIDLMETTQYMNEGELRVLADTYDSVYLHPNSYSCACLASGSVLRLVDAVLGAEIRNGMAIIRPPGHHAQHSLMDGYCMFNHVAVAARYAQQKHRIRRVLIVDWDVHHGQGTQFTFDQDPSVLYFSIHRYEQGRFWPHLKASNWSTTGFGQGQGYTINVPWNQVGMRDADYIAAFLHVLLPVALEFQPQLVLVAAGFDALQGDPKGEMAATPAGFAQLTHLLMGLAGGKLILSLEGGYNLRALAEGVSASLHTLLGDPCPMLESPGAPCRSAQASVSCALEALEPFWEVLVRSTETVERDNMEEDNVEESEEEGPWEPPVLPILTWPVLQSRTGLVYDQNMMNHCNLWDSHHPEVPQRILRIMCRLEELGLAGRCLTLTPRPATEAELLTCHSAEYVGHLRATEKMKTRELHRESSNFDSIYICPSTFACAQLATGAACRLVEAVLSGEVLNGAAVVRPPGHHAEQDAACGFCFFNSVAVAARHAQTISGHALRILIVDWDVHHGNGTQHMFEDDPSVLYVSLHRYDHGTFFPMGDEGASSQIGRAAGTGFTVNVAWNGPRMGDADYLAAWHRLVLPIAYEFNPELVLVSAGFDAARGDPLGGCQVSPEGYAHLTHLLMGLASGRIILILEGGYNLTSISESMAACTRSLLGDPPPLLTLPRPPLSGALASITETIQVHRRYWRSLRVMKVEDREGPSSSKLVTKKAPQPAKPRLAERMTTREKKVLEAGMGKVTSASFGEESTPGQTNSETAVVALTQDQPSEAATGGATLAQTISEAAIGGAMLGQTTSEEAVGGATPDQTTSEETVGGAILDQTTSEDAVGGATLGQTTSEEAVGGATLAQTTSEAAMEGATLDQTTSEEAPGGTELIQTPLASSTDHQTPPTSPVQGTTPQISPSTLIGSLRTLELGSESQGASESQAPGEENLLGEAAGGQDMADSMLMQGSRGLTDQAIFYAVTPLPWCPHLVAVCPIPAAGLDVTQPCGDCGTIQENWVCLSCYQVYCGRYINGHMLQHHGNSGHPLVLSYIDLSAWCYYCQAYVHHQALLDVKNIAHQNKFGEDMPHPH
# HDAC8 [5] = target: T4, HDAC8; experiment: HDAC inhibition assay (fluorogenic, Ac-Leu-Gly-Lys(Tfa)-AMC); format: biochemical; settings: for HDAC8 dose-response data (relative enzyme activity, replicate values), Fig. 6 + S. Fig. 10: two replicate columns per inhibitor; for HDAC8 dose-response data (relative enzyme activity), Fig. 6 + S. Fig. 10: duplicate columns
# HDAC3/NCoR2 [6] = target: T3, HDAC3/NCoR2; experiment: HDAC inhibition assay (fluorogenic, Ac-Leu-Gly-Lys(Ac)-AMC); format: biochemical; settings: for HDAC3 dose-response data (relative enzyme activity), Fig. 6 + S. Fig. 10: duplicate columns
# HDAC1 [7] = target: T2, HDAC1; experiment: as above; format: biochemical; settings: for HDAC1 dose-response data (relative enzyme activity), Fig. 6 + S. Fig. 10: duplicate columns
# HDAC2 [8] = target: T1, HDAC2; experiment: as above; format: biochemical; settings: for HDAC2 dose-response data (relative enzyme activity), Fig. 6 + S. Fig. 10: duplicate columns
# [9] = log[inhibitor(M)] -10,5850266520292*, whole line marked with asterisks
# T2 sequence (Q13547 whole entry): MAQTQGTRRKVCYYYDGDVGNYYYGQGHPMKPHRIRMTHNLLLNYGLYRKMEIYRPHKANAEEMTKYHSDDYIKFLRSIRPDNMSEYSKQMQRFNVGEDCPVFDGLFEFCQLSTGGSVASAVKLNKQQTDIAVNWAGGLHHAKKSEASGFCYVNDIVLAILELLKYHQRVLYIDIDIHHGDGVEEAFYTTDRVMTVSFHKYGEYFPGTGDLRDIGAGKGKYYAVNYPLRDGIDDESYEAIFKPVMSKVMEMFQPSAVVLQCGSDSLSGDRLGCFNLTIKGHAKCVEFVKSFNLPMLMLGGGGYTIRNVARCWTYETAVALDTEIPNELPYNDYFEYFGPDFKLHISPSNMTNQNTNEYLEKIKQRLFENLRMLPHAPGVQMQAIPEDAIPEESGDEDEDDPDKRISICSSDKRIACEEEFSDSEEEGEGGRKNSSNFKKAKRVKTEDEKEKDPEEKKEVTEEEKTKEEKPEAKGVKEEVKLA
# T3 sequence (O15379 whole entry): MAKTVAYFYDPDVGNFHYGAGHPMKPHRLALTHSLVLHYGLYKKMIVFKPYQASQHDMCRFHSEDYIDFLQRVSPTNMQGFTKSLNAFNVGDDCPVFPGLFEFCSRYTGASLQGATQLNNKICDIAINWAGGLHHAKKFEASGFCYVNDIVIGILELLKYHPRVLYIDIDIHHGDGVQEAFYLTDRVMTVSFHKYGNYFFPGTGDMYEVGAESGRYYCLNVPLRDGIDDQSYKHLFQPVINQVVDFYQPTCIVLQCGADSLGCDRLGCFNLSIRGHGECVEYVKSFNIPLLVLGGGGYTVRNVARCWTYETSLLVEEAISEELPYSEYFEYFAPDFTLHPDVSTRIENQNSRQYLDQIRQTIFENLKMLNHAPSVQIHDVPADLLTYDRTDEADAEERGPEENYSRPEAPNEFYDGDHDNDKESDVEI
# T3 sequence (Q9Y618 389-480 partner limits assumed): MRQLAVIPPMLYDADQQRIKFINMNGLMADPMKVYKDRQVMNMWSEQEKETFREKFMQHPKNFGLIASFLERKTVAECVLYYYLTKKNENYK
# T1 sequence (Q92769 whole entry): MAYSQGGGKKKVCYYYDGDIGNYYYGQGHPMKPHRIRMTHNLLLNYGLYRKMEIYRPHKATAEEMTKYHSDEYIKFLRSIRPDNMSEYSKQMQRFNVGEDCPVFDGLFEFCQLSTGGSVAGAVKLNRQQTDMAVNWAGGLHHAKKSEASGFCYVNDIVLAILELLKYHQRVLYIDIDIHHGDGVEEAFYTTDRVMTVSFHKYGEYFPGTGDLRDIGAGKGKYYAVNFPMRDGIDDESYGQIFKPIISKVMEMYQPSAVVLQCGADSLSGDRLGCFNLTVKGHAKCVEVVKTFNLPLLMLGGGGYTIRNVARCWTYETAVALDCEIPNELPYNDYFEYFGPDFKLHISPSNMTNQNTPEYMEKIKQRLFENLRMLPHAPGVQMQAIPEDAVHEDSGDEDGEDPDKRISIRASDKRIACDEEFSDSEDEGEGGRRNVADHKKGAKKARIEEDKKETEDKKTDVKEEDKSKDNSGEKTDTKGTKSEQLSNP
structure (smiles),measurement,setting,value
CC(=O)N[C@@H](C)C(=O)N1CCC[C@H]1C(=O)N[C@@H](C)C(=O)N1CCC[C@H]1C(=O)N[C@@H](CCCCN)C(=O)N[C@@H](CCCCCC(=O)NO)C(=O)NCC(=O)N[C@@H](CO)C(=O)N[C@@H](CCCCN)C(=O)N[C@@H](CCCCN)C(=O)N[C@@H](C)C(=O)N[C@H](C(=O)N[C@H](C(=O)N[C@@H](CCCCN)C(=O)N[C@@H](C)C(=O)N[C@@H](CCC(N)=O)C(=O)N[C@@H](Cc1c[nH]c2ccccc12)C(N)=O)[C@@H](C)O)C(C)C [10a] (Ac-APAPK[Asu](NHOH)GSKKAVTKAQW-NH2),EC50,HDAC2 [1],> 25.1 nM
same,EC50,HDAC1 [2],8.71 nM
same,EC50,HDAC3/NCoR2 [3],3.09 nM
same,EC50,HDAC8 [4],> 25.1 nM
same,residual enzymatic activity relative to control wells,HDAC6; log[inhibitor(M)] -4.30103,1.4 and 0.93
same,residual enzymatic activity relative to control wells,HDAC6; log[inhibitor(M)] -5,3.09 and 2.23
same,residual enzymatic activity relative to control wells,HDAC6; log[inhibitor(M)] -5.69897,13.76 and 8.98
same,residual enzymatic activity relative to control wells,HDAC6; log[inhibitor(M)] -6.39794,36.89 and 30.05
same,residual enzymatic activity relative to control wells,HDAC6; log[inhibitor(M)] -7.09691,68.83 and 58.89
same,residual enzymatic activity relative to control wells,HDAC6; log[inhibitor(M)] -7.79588,90.1 and 83.16
same,residual enzymatic activity relative to control wells,HDAC6; log[inhibitor(M)] -8.49485,98.1 and 88.82
same,residual enzymatic activity relative to control wells,HDAC6; log[inhibitor(M)] -9.19382,100.25 and 95.78
same,residual enzymatic activity relative to control wells,HDAC6; log[inhibitor(M)] -9.89279,102.47 and 98.2
same,residual enzymatic activity relative to control wells,HDAC6; log[inhibitor(M)] -10.585,"99,94* and 98,05*"
same,Ki,HDAC8 [5],2240 ± 20 nM
same,"HDAC8 dose-response data (relative enzyme activity, replicate values), Fig. 6 + S. Fig. 10",HDAC8 [5]; Inhibitor conc [M] -8.49485 (log),108.857 and 102.18
same,"HDAC8 dose-response data (relative enzyme activity, replicate values), Fig. 6 + S. Fig. 10",HDAC8 [5]; Inhibitor conc [M] -9.19382 (log),106.186 and 101.221
same,"HDAC8 dose-response data (relative enzyme activity, replicate values), Fig. 6 + S. Fig. 10",HDAC8 [5]; Inhibitor conc [M] given as -7.09691 (log),102.611 and 104.497
same,"HDAC8 dose-response data (relative enzyme activity, replicate values), Fig. 6 + S. Fig. 10",HDAC8 [5]; Inhibitor conc [M] given as -7.79588 (log),103.781 and 99.0423
same,"HDAC8 dose-response data (relative enzyme activity, replicate values), Fig. 6 + S. Fig. 10",HDAC8 [5]; Inhibitor conc [M] given as -9.89279 (log),110.267 and 101.97
same,"HDAC8 dose-response data (relative enzyme activity), Fig. 6 + S. Fig. 10",HDAC8 [5]; Inhibitor conc [M] -3.60206,2.527 and 3.969
same,"HDAC8 dose-response data (relative enzyme activity), Fig. 6 + S. Fig. 10",HDAC8 [5]; Inhibitor conc [M] -4.30103,9.773 and 11.8218
same,"HDAC8 dose-response data (relative enzyme activity), Fig. 6 + S. Fig. 10",HDAC8 [5]; Inhibitor conc [M] -5,29.4256 and 37.404
same,"HDAC8 dose-response data (relative enzyme activity), Fig. 6 + S. Fig. 10",HDAC8 [5]; Inhibitor conc [M] -5.69897,62.2051 and 60.7878
same,"HDAC8 dose-response data (relative enzyme activity), Fig. 6 + S. Fig. 10",HDAC8 [5]; Inhibitor conc [M] -6.39794,91.1582 and 94.1836
same,Ki,HDAC3/NCoR2 [6],51.2 ± 0.9 nM
same,"HDAC3 dose-response data (relative enzyme activity), Fig. 6 + S. Fig. 10",HDAC3/NCoR2 [6]; log[inhibitor(M)] -4.30103,2.766 and 1.97
same,"HDAC3 dose-response data (relative enzyme activity), Fig. 6 + S. Fig. 10",HDAC3/NCoR2 [6]; log[inhibitor(M)] -5,10.2945 and 7.913
same,"HDAC3 dose-response data (relative enzyme activity), Fig. 6 + S. Fig. 10",HDAC3/NCoR2 [6]; log[inhibitor(M)] -5.69897,26.7937 and 20.8193
same,"HDAC3 dose-response data (relative enzyme activity), Fig. 6 + S. Fig. 10",HDAC3/NCoR2 [6]; log[inhibitor(M)] -6.39794,46.8605 and 38.5396
same,"HDAC3 dose-response data (relative enzyme activity), Fig. 6 + S. Fig. 10",HDAC3/NCoR2 [6]; log[inhibitor(M)] -7.09691,73.2021 and 63.7098
same,"HDAC3 dose-response data (relative enzyme activity), Fig. 6 + S. Fig. 10",HDAC3/NCoR2 [6]; log[inhibitor(M)] -7.79588,98.3444 and 77.95
same,"HDAC3 dose-response data (relative enzyme activity), Fig. 6 + S. Fig. 10",HDAC3/NCoR2 [6]; log[inhibitor(M)] -8.49485,104.594 and 95.6609
same,"HDAC3 dose-response data (relative enzyme activity), Fig. 6 + S. Fig. 10",HDAC3/NCoR2 [6]; log[inhibitor(M)] -9.19382,108.819 and 98.0987
same,"HDAC3 dose-response data (relative enzyme activity), Fig. 6 + S. Fig. 10",HDAC3/NCoR2 [6]; log[inhibitor(M)] -9.89279,107.136 and 105.407
same,"HDAC3 dose-response data (relative enzyme activity), Fig. 6 + S. Fig. 10",HDAC3/NCoR2 [6]; [9],"106,9896* and 85,1199*"
same,Ki,HDAC1 [7],111 ± 2 nM
same,"HDAC1 dose-response data (relative enzyme activity), Fig. 6 + S. Fig. 10",HDAC1 [7]; log[inhibitor(M)] -4.30103,5.334 and 4.212
same,"HDAC1 dose-response data (relative enzyme activity), Fig. 6 + S. Fig. 10",HDAC1 [7]; log[inhibitor(M)] -5.69897,29.499 and 30.3493
same,"HDAC1 dose-response data (relative enzyme activity), Fig. 6 + S. Fig. 10",HDAC1 [7]; log[inhibitor(M)] -6.39794,63.3422 and 57.5642
same,"HDAC1 dose-response data (relative enzyme activity), Fig. 6 + S. Fig. 10",HDAC1 [7]; log[inhibitor(M)] -7.09691,92.4396 and 86.4688
same,"HDAC1 dose-response data (relative enzyme activity), Fig. 6 + S. Fig. 10",HDAC1 [7]; log[inhibitor(M)] -7.79588,116.265 and 84.5085
same,"HDAC1 dose-response data (relative enzyme activity), Fig. 6 + S. Fig. 10",HDAC1 [7]; log[inhibitor(M)] -8.49485,113.205 and 105.123
same,"HDAC1 dose-response data (relative enzyme activity), Fig. 6 + S. Fig. 10",HDAC1 [7]; log[inhibitor(M)] -9.19382,116.621 and 108.226
same,"HDAC1 dose-response data (relative enzyme activity), Fig. 6 + S. Fig. 10",HDAC1 [7]; log[inhibitor(M)] -9.89279,112.611 and 105.771
same,"HDAC1 dose-response data (relative enzyme activity), Fig. 6 + S. Fig. 10",HDAC1 [7]; [9],"102,7345* and 100,1809*"
same,"HDAC2 dose-response data (relative enzyme activity), Fig. 6 + S. Fig. 10",HDAC2 [8]; log[inhibitor(M)] -5,21.842 and 17.4503
same,"HDAC2 dose-response data (relative enzyme activity), Fig. 6 + S. Fig. 10",HDAC2 [8]; log[inhibitor(M)] -5.69897,44.183 and 59.677
same,"HDAC2 dose-response data (relative enzyme activity), Fig. 6 + S. Fig. 10",HDAC2 [8]; log[inhibitor(M)] -7.79588,120.227 and 109.311
same,"HDAC2 dose-response data (relative enzyme activity), Fig. 6 + S. Fig. 10",HDAC2 [8]; [9],"109,81* and 112,306*"
same,Ki,"HDAC2 [8]; resynthesized peptide in solution, Cheng-Prusoff, n = 2",239 ± 4 nM
